Laboratory results: patent US8192962B2, “Processes for detecting toxic substances” (Daikin Industries, Ltd., priority 2001, dated 2012)

Test system: Unknown protein yeast genes
Experiment: DNA chip mRNA expression in yeast, unknown protein yeast genes (Table 1)
Format: cell-based, Saccharomyces cerevisiae S288C
Method in brief: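 Ratios compare mRNA levels in stressed and control S. cerevisiae. Each toxicant was applied for two hours to log-phase cultures at 25° C. at a sub-lethal, growth-inhibiting level; fluorescent cDNA (Cy3- or Cy5-dUTP) was hybridized to a genome-wide yeast chip for over 12 h at 65° C.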

## CN(C)C(=S)SSC(=S)N(C)C [(10), Tetramethylthiuram disulfide]
Yeast gene YKL086W, incubated two hours with chemical substance
  The level of expressed mRNA in the presence of chemical substance/The level of expressed mRNA in the absence of chemical substance: 20.5
Yeast gene YKL151C, incubated two hours with chemical substance
  The level of expressed mRNA in the presence of chemical substance/The level of expressed mRNA in the absence of chemical substance: 3.5
Yeast gene YKL153W, incubated two hours with chemical substance
  The level of expressed mRNA in the presence of chemical substance/The level of expressed mRNA in the absence of chemical substance: 1.4
Yeast gene YKL195W, incubated two hours with chemical substance
  The level of expressed mRNA in the presence of chemical substance/The level of expressed mRNA in the absence of chemical substance: 2.1
Yeast gene YKR011C
  The level of expressed mRNA in the presence of chemical substance/The level of expressed mRNA in the absence of chemical substance: 4.4
Yeast gene YKR091W, incubated two hours with chemical substance
  The level of expressed mRNA in the presence of chemical substance/The level of expressed mRNA in the absence of chemical substance: 1.6
Yeast gene YLR054C, incubated two hours with chemical substance
  The level of expressed mRNA in the presence of chemical substance/The level of expressed mRNA in the absence of chemical substance: 1.1
Yeast gene YLR149C, incubated two hours with chemical substance
  The level of expressed mRNA in the presence of chemical substance/The level of expressed mRNA in the absence of chemical substance: 5.2
Yeast gene YLR152C, incubated two hours with chemical substance
  The level of expressed mRNA in the presence of chemical substance/The level of expressed mRNA in the absence of chemical substance: 1.1
Yeast gene YLR194C, incubated two hours with chemical substance
  The level of expressed mRNA in the presence of chemical substance/The level of expressed mRNA in the absence of chemical substance: 1.1
Yeast gene YLR324W, incubated two hours with chemical substance
  The level of expressed mRNA in the presence of chemical substance/The level of expressed mRNA in the absence of chemical substance: 1.4
Yeast gene YLR350W, incubated two hours with chemical substance
  The level of expressed mRNA in the presence of chemical substance/The level of expressed mRNA in the absence of chemical substance: 1.4
Yeast gene YLR387C, incubated two hours with chemical substance
  The level of expressed mRNA in the presence of chemical substance/The level of expressed mRNA in the absence of chemical substance: 3.0
Yeast gene YLR460C
  The level of expressed mRNA in the presence of chemical substance/The level of expressed mRNA in the absence of chemical substance: 31.6
Yeast gene YML117W, incubated two hours with chemical substance
  The level of expressed mRNA in the presence of chemical substance/The level of expressed mRNA in the absence of chemical substance: 1.4
Yeast gene YMR009W, incubated two hours with chemical substance
  The level of expressed mRNA in the presence of chemical substance/The level of expressed mRNA in the absence of chemical substance: 2.2
Yeast gene YMR067C, incubated two hours with chemical substance
  The level of expressed mRNA in the presence of chemical substance/The level of expressed mRNA in the absence of chemical substance: 3.5
Yeast gene YMR090W
  The level of expressed mRNA in the presence of chemical substance/The level of expressed mRNA in the absence of chemical substance: 6.1
Yeast gene YMR095C, incubated two hours with chemical substance
  The level of expressed mRNA in the presence of chemical substance/The level of expressed mRNA in the absence of chemical substance: 1.4
Yeast gene YMR097C, incubated two hours with chemical substance
  The level of expressed mRNA in the presence of chemical substance/The level of expressed mRNA in the absence of chemical substance: 2.1
Yeast gene YMR102C, incubated two hours with chemical substance
  The level of expressed mRNA in the presence of chemical substance/The level of expressed mRNA in the absence of chemical substance: 2.6
Yeast gene YMR107W, incubated two hours with chemical substance
  The level of expressed mRNA in the presence of chemical substance/The level of expressed mRNA in the absence of chemical substance: 17.1
Yeast gene YMR180C, incubated two hours with chemical substance
  The level of expressed mRNA in the presence of chemical substance/The level of expressed mRNA in the absence of chemical substance: 2.2
Yeast gene YMR184W, incubated two hours with chemical substance
  The level of expressed mRNA in the presence of chemical substance/The level of expressed mRNA in the absence of chemical substance: 0.9
Yeast gene YMR191W, incubated two hours with chemical substance
  The level of expressed mRNA in the presence of chemical substance/The level of expressed mRNA in the absence of chemical substance: 3.5
Yeast gene YMR295C, incubated two hours with chemical substance
  The level of expressed mRNA in the presence of chemical substance/The level of expressed mRNA in the absence of chemical substance: 0.8
Yeast gene YMR316W, incubated two hours with chemical substance
  The level of expressed mRNA in the presence of chemical substance/The level of expressed mRNA in the absence of chemical substance: 3.0
Yeast gene YNL044W, incubated two hours with chemical substance
  The level of expressed mRNA in the presence of chemical substance/The level of expressed mRNA in the absence of chemical substance: 0.8
Yeast gene YNL074C, incubated two hours with chemical substance
  The level of expressed mRNA in the presence of chemical substance/The level of expressed mRNA in the absence of chemical substance: 2.0
Yeast gene YNL092W, incubated two hours with chemical substance
  The level of expressed mRNA in the presence of chemical substance/The level of expressed mRNA in the absence of chemical substance: 1.5
Yeast gene YNL115C, incubated two hours with chemical substance
  The level of expressed mRNA in the presence of chemical substance/The level of expressed mRNA in the absence of chemical substance: 1.9
Yeast gene YNL156C, incubated two hours with chemical substance
  The level of expressed mRNA in the presence of chemical substance/The level of expressed mRNA in the absence of chemical substance: 1.9
Yeast gene YNL234W, incubated two hours with chemical substance
  The level of expressed mRNA in the presence of chemical substance/The level of expressed mRNA in the absence of chemical substance: 3.3
Yeast gene YNL281W, incubated two hours with chemical substance
  The level of expressed mRNA in the presence of chemical substance/The level of expressed mRNA in the absence of chemical substance: 1.6
Yeast gene YNL305C, incubated two hours with chemical substance
  The level of expressed mRNA in the presence of chemical substance/The level of expressed mRNA in the absence of chemical substance: 2.1
Yeast gene YNR068C, incubated two hours with chemical substance
  The level of expressed mRNA in the presence of chemical substance/The level of expressed mRNA in the absence of chemical substance: 14.4
Yeast gene YOL032W, incubated two hours with chemical substance
  The level of expressed mRNA in the presence of chemical substance/The level of expressed mRNA in the absence of chemical substance: 3.0
Yeast gene YOL036W, incubated two hours with chemical substance
  The level of expressed mRNA in the presence of chemical substance/The level of expressed mRNA in the absence of chemical substance: 2.8
Yeast gene YOL047C, incubated two hours with chemical substance
  The level of expressed mRNA in the presence of chemical substance/The level of expressed mRNA in the absence of chemical substance: 2.3
Yeast gene YOL071W, incubated two hours with chemical substance
  The level of expressed mRNA in the presence of chemical substance/The level of expressed mRNA in the absence of chemical substance: 2.3
Yeast gene YOL082W, incubated two hours with chemical substance
  The level of expressed mRNA in the presence of chemical substance/The level of expressed mRNA in the absence of chemical substance: 2.0
Yeast gene YOL083W, incubated two hours with chemical substance
  The level of expressed mRNA in the presence of chemical substance/The level of expressed mRNA in the absence of chemical substance: 2.3
Yeast gene YOL117W, incubated two hours with chemical substance
  The level of expressed mRNA in the presence of chemical substance/The level of expressed mRNA in the absence of chemical substance: 4.1
Yeast gene YOL131W, incubated two hours with chemical substance
  The level of expressed mRNA in the presence of chemical substance/The level of expressed mRNA in the absence of chemical substance: 8.1
Yeast gene YOL150C
  The level of expressed mRNA in the presence of chemical substance/The level of expressed mRNA in the absence of chemical substance: 8.3
Yeast gene YOL162W, incubated two hours with chemical substance
  The level of expressed mRNA in the presence of chemical substance/The level of expressed mRNA in the absence of chemical substance: 6.8
Yeast gene YOR019W, incubated two hours with chemical substance
  The level of expressed mRNA in the presence of chemical substance/The level of expressed mRNA in the absence of chemical substance: 7.1
Yeast gene YOR197W, incubated two hours with chemical substance
  The level of expressed mRNA in the presence of chemical substance/The level of expressed mRNA in the absence of chemical substance: 0.7
Yeast gene YOR338W
  The level of expressed mRNA in the presence of chemical substance/The level of expressed mRNA in the absence of chemical substance: 3.5
Yeast gene YPL087W, incubated two hours with chemical substance
  The level of expressed mRNA in the presence of chemical substance/The level of expressed mRNA in the absence of chemical substance: 2.2
Yeast gene YPL196W, incubated two hours with chemical substance
  The level of expressed mRNA in the presence of chemical substance/The level of expressed mRNA in the absence of chemical substance: 2.8
Yeast gene YPL206C, incubated two hours with chemical substance
  The level of expressed mRNA in the presence of chemical substance/The level of expressed mRNA in the absence of chemical substance: 1.1
Yeast gene YPL222W, incubated two hours with chemical substance
  The level of expressed mRNA in the presence of chemical substance/The level of expressed mRNA in the absence of chemical substance: 3.4
Yeast gene YPR023C, incubated two hours with chemical substance
  The level of expressed mRNA in the presence of chemical substance/The level of expressed mRNA in the absence of chemical substance: 2.8
Yeast gene YPR151C, incubated two hours with chemical substance
  The level of expressed mRNA in the presence of chemical substance/The level of expressed mRNA in the absence of chemical substance: 9.5
